A short description of data set [1]: Stability in PBS followed by UV-VIS spectroscopy. Conditions: 1 × 10^−4 M in PBS, 0-24 h. It counts as physicochemical. An excerpt:
Ligand precursor 3,4-dimethylphenylhydrazine hydrochloride (BLDPharm), [{RuCl2(η^6-p-cymene)}2] (Carbolutions), LiOH × H2O (Sigma Aldrich, Darmstadt, Germany), methanol (Carl Roth), diethyl ether (Carl Roth) and 2-propanol (Carl Roth) were obtained commercially and used without further purification. Deuterated solvents, CDCl3 and MeOD, were procured from Deuterosolvents GmbH and used for NMR spectroscopy. NMR spectra of the synthesized complexes, including ^1H (400.23 MHz) and ^13C NMR (100.1 MHz), were recorded using a Bruker Avance™ 400 MHz Spectrometer. Elemental analysis was performed and the Institute of Chemistry, Chemnitz University of Technology (Heraeus VARIO EL oven). The stability of compounds was examined by UV-VIS spectroscopy on a Thermo Scientific UV-VIS Spectrometer (Thermo Fisher Scientific, Waltham, MA, USA) between 800 and 200 nm. For this experiment, 1 × 10^−2 M solutions of complexes in DMSO were prepared and further diluted to 1 × 10^−4 M solutions in PBS. The measurements were repeated for 24 h.

Data set [2] has as its target T1, HSA (Homo sapiens, UniProt P02768). The data set can be described thus: Spin-probing EPR: displacement of 16-DS from preformed HSA/16-DS. It counts as binding. Particulars: for Unbound Component Contribution (XUB, %): 50 µM HSA, 250 µM 16-DS, 200 µM complex ([HSA]:[Ru-complex] 1:4), 1.2% v/v DMSO, phosphate buffer pH 7.4, EPR spectral simulation. As to the method:
In order to investigate the nature of the interaction between the two Ru-complexes and human serum albumin (HSA), spin-probing/electron paramagnetic resonance methodology was used additionally. Namely, as HSA can bind up to seven molecules of long-chain fatty acids, and their doxyl derivatives, which are EPR-active compounds, HSA was first incubated with the fivefold concentration of 16-doxyl-stearic acid (16-DS, Sigma-Aldrich), and subsequently the aliquots of the Ru-complexes solutions were added to the HSA/16-DS mixture. For this experiment, HSA was dissolved in the 100 mM phosphate buffer, pH 7.4, and its concentration was 0.2 mM. The ethanol solution of 16-DS was transferred to the bottom of the test tube, and ethanol was dried in the Eppendorf Concentrator plus vacuum centrifuge. After the ethanol completely evaporated, an appropriate amount of HSA solution was added to the tube containing 16-DS. The concentration of the 16-DS in HSA/16-DS solution was 1 mM, i.e., [HSA]:[16-DS] molar ratio was 1:5. This stock solution was incubated until the full binding of 16-DS to HSA was achieved. The incubation involved occasional gentle vortexing and thermostating at 37 °C in a water bath.
In the next step, Ru(II) complexes were dissolved in DMSO and diluted using 100 mM phosphate buffer, pH 7.4. The concentrations of both Ru(II) complexes stock solutions were 266.67 µM. Small volumes of these solutions were added to HSA/16-DS preparation and diluted with the phosphate buffer. Afterward, the samples were incubated for 30 min before the EPR measurement. […]
The samples prepared as previously described were aspirated into the capillary gas-permeable Teflon tubes (Zeus Industries, Inc., Orangeburg, SC, USA) and placed into the resonator cavity of the X-band EPR spectrometer Bruker Elexsys II E500. […] The acquired EPR spectra were analyzed using the Bruker Xepr software and simulated by SimLabel, a graphical user interface software that is an extension of EasySpin [64], the EPR simulation package (the version of EasySpin used was 6.0.6). […]

For data set [3], the target named is T1, HSA. In words: Spectrofluorimetric titration (fluorescence quenching) of HSA with the complexes. The format is binding. Particulars: for ΔHb / ΔSb: van't Hoff plot, 300-310 K. As to the method: The excitation wavelength was set to 285 nm, while the emission spectrum was recorded in the interval from 315 nm to 600 nm. […] solution (phosphate buffer pH = 7.6) with a concentration of 5 × 10^−6 M was titrated (5–10 times) with a complex solutions (5 × 10^−4 M). Before each addition of complexes 1 and 2 to the HSA solutions, the cuvette was thermostated for 2 min for each tested temperature, and then the fluorescence quenching spectra of proteins were recorded. Recordings started 2 min after adding complex 1/complex 2 solutions to reach the desired temperature. The data were analyzed according to the double-log Stern-Volmer (SV) equation: (1) log(I0−IQ/IQ)=logKb+nlog[Q] where Kb and n are the binding constants and the number of binding sites per HSA molecule. The binding constants were determined from the intercept values on the SV diagrams and the double log SV equation (Table 1). These values are further used for van’t Hoff plots, lnKb = f(T^−1), from which the Gibbs free energy, enthalpy, and entropy changes were determined.

Data set [4] deals with HS-5 cells. The data set can be described thus: MTT test on healthy cells. The format is cell-based. Particulars: same concentrations as for cancer cells, 24 h. On the procedure: Cells were harvested when they reached 85–90% confluent. 100 µL of cell suspension (15.000 cells per well) was poured into the wells of the 96-well plate and incubated overnight to allow the cells to attach to the well. The cells were treated with 1 or 2 in concentrations ranging from 0.19 to 200 µM. Untreated cells were used as control. After 24 h, 10 µL MTT (5 mg/mL) was added to each well. Cultures were incubated for […] at 37 °C. The reduction process was stopped by adding 100 µL/well of 10% SDS acidified with 1N HCl. Dissolution of the resulting blue color was continued overnight in the incubator at 37 °C. All treatments were done in replicates of three. The absorbance was read at 540 nm on an ELISA reader (RT-6100, Rayto, Shenzhen, China). The ratio of absorbances of treated to untreated living cells was used to measure viability. Cytotoxic activity was recorded as IC50, which is the concentration necessary to reduce the absorbance of treated cells by 50% compared to the control.
(In general: Formazan colour is commonly taken as a measure of viable cells.)

The values below come from PMC11940238, “Ru(II) Complexes with 3,4-Dimethylphenylhydrazine: Exploring In Vitro Anticancer Activity and Protein Affinities” (Biomolecules, 2025).

T1 sequence (P02768 25-609): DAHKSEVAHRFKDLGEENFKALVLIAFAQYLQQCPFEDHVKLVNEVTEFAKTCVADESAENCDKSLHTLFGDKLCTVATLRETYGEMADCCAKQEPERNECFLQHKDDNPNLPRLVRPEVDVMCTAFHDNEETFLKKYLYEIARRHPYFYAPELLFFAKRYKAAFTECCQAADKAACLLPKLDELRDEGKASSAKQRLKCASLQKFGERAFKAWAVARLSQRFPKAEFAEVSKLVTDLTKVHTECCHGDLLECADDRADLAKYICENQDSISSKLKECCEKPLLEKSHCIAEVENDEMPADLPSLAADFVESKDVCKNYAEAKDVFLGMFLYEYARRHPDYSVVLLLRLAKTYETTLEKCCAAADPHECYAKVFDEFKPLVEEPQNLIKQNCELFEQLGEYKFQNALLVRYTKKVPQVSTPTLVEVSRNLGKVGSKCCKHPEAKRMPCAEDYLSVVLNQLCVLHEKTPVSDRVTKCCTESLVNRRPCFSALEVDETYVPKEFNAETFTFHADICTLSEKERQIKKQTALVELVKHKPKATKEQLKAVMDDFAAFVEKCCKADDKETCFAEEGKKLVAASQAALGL

Turning to `Cc1ccc(C(C)C)cc1.Cc1ccc(C(C)C)cc1.Cc1ccc(NN)cc1C.[Cl-].[Cl][Ru].[Cl][Ru][Cl]` [complex 2, Chlorido(μ-chlorido)(η^6-p-cymene)(μ-3,4-dimethylphenylhydrazine-κ^2N,N′)ruthenium(II)-dimer chloride], the “time-dependent UV-VIS spectra (stability)” value in data set [1] was “gradual increase in absorbance”. For the same compound, the “Unbound Component Contribution (XUB, %)” value in data set [2] is on record as 0.71 ± 0.02%. In data set [3] (300 K), the “n (number of binding sites)” value was 1.00 and the ΔGb was -6.12 kcal/mol. Further, in data set [3] (305 K), the “n (number of binding sites)” value was 1.03 and the ΔGb was -6.55 kcal/mol. For the same compound, in data set [3] (310 K), the “n (number of binding sites)” value is on record as 1.09 and the ΔGb was -6.96 kcal/mol. Moreover, in data set [3], the ΔHb was 18.9 kcal/mol and the ΔSb is recorded as 348 J mol^−1 K^−1. Also, the “viability of HS-5 cells” value in data set [4] was “did not affect the viability”.
In the case of “Dichlorido(η^6-p-cymene)(3,4-dimethylphenylhydrazine-κN)ruthenium(II) [complex 1]”, in data set [1], the “time-dependent UV-VIS spectra (stability)” value is given as “monoexponential decrease in absorbance due to the hydrolysis”. Also, the “Unbound Component Contribution (XUB, %)” value in data set [2] is on record as 0.73 ± 0.02%. Also, the “Ihf/Ilf parameter (amplitude ratio of high-field and low-field peaks)” value in data set [2] ([HSA]:[Ru-complex] 1:0.5 to 1:4, qualitative) is “more pronounced increase”. Further, in data set [3] (27-37 °C), the “change in Gibbs binding energy, range over the examined temperatures” value is reported as −28.3 to −34.2 kJ mol^−1. For the same compound, in data set [3] (300 K), the “n (number of binding sites)” value is listed as 1.05 and the ΔGb was -6.76 kcal/mol. Moreover, in data set [3] (305 K), the “n (number of binding sites)” value was found to be 1.10 and the ΔGb is -7.46 kcal/mol. In data set [3] (310 K), the “n (number of binding sites)” value was 1.21 and the ΔGb is -8.17 kcal/mol. Also, in data set [3], the ΔHb was determined as 35.8 kcal/mol and the ΔSb was determined as 590 J mol^−1 K^−1. The “viability of HS-5 cells” value in data set [4] is listed as “did not affect the viability”.
